# Test results from ChEMBL document CHEMBL3351930, “Synthesis of novel chiral TBBt derivatives with hydroxyl moiety. Studies on inhibition of human protein kinase CK2α and cytotoxicity properties” (Eur J Med Chem, 2014).
# System: CCRF-CEM
# Assay: Anticancer activity against human CCRF-CEM cells assessed as cell viability at 12.5 uM after 48 hrs by MTT assay
# Assay type: functional
# Conditions: read-out: Activity
row,Structure (SMILES),viability at 12.5 µM
1,CC(O)Cn1nc2c(Br)c(Br)c(Br)c(Br)c2n1 (racemic),83%
2,COc1cccc(C(O)CCn2nc3c(Br)c(Br)c(Br)c(Br)c3n2)c1 (stereo not given),96%
3,OC(CCn1nc2c(Br)c(Br)c(Br)c(Br)c2n1)c1ccc(F)cc1 (stereo not given),101%

# System: MCF7
# Assay: Anticancer activity against human MCF7 cells assessed as cell viability at 50 uM after 24 hrs by MTT assay
# Assay type: functional
# Conditions: MCF7, 24 h, read-out: Activity
row,Structure (SMILES),viability at 50 µM
1,Brc1c(Br)c(Br)c2[nH]nnc2c1Br [TETRABROMOBENZOTRIAZOLE],120%
2,CC(O)Cn1nc2c(Br)c(Br)c(Br)c(Br)c2n1 (racemic),60%
3,COc1cccc(C(O)CCn2nc3c(Br)c(Br)c(Br)c(Br)c3n2)c1 (stereo not given),22%
4,OC(CCn1nc2c(Br)c(Br)c(Br)c(Br)c2n1)c1ccc(F)cc1 (stereo not given),16%

# System: MCF7
# Assay: Anticancer activity against human MCF7 cells assessed as cell viability at 50 uM after 48 hrs by MTT assay
# Assay type: functional
# Conditions: MCF7, 48 h, read-out: Activity
row,Structure (SMILES),viability at 50 µM
1,CC(O)Cn1nc2c(Br)c(Br)c(Br)c(Br)c2n1 (racemic),16%
2,COc1cccc(C(O)CCn2nc3c(Br)c(Br)c(Br)c(Br)c3n2)c1 (stereo not given),20%
3,OC(CCn1nc2c(Br)c(Br)c(Br)c(Br)c2n1)c1ccc(F)cc1 (stereo not given),7%

# Biological target: Casein kinase II subunit alpha (Homo sapiens) (UniProt P68400)
# Sequence (P68400 whole entry, looked up): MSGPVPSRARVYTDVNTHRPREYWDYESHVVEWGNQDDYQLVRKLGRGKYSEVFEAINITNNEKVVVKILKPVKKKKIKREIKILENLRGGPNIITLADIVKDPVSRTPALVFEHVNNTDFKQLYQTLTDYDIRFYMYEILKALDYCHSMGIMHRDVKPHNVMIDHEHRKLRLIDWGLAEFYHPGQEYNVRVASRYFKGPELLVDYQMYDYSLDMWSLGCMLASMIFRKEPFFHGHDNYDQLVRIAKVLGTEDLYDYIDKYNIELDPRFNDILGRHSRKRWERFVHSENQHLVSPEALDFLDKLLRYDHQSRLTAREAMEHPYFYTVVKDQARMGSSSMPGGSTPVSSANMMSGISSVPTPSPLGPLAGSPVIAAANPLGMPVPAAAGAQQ
# Assay: Inhibition of human CK2alpha using RRRDDDSDDD peptide substrate at 20 uM by P81 filter-binding assay
# Set-up: scale not given: the % may be the effect or the level left
# Conditions: not given
row,Structure (SMILES),Activity
1,COc1cccc(C(O)CCn2nc3c(Br)c(Br)c(Br)c(Br)c3n2)c1 (stereo not given),95.1%
2,OC(CCn1nc2c(Br)c(Br)c(Br)c(Br)c2n1)c1ccc(F)cc1 (stereo not given),91.4%

# System: CCRF-CEM
# Assay: Anticancer activity against human CCRF-CEM cells assessed as cell viability at 12.5 uM after 24 hrs by MTT assay
# Assay type: functional
# Conditions: read-out: Activity
row,Structure (SMILES),viability at 12.5 µM
1,Brc1c(Br)c(Br)c2[nH]nnc2c1Br [TETRABROMOBENZOTRIAZOLE],115%
2,CC(O)Cn1nc2c(Br)c(Br)c(Br)c(Br)c2n1 (racemic),125%
3,COc1cccc(C(O)CCn2nc3c(Br)c(Br)c(Br)c(Br)c3n2)c1 (stereo not given),110%
4,OC(CCn1nc2c(Br)c(Br)c(Br)c(Br)c2n1)c1ccc(F)cc1 (stereo not given),110%

# System: CCRF-CEM
# Assay: Anticancer activity against human CCRF-CEM cells assessed as cell viability at 100 uM after 48 hrs by MTT assay
# Assay type: functional
# Conditions: read-out: Activity
row,Structure (SMILES),viability at 100 µM
1,CC(O)Cn1nc2c(Br)c(Br)c(Br)c(Br)c2n1 (racemic),0%
2,COc1cccc(C(O)CCn2nc3c(Br)c(Br)c(Br)c(Br)c3n2)c1 (stereo not given),2%
3,OC(CCn1nc2c(Br)c(Br)c(Br)c(Br)c2n1)c1ccc(F)cc1 (stereo not given),0%

# System: MCF7
# Assay: Anticancer activity against human MCF7 cells assessed as cell viability at 12.5 uM after 24 hrs by MTT assay
# Assay type: functional
# Conditions: MCF7, 24 h, read-out: Activity
row,Structure (SMILES),viability at 12.5 µM
1,Brc1c(Br)c(Br)c2[nH]nnc2c1Br [TETRABROMOBENZOTRIAZOLE],111%
2,CC(O)Cn1nc2c(Br)c(Br)c(Br)c(Br)c2n1 (racemic),118%
3,COc1cccc(C(O)CCn2nc3c(Br)c(Br)c(Br)c(Br)c3n2)c1 (stereo not given),121%
4,OC(CCn1nc2c(Br)c(Br)c(Br)c(Br)c2n1)c1ccc(F)cc1 (stereo not given),116%

# Biological target: Casein kinase II subunit alpha (Homo sapiens) (UniProt P68400)
# Assay: Inhibition of human CK2alpha using RRRDDDSDDD peptide substrate at 200 uM by P81 filter-binding assay
# Set-up: scale not given: the % may be the effect or the level left
# Conditions: not given
row,Structure (SMILES),Activity
1,COc1cccc(C(O)CCn2nc3c(Br)c(Br)c(Br)c(Br)c3n2)c1 (stereo not given),87.5%
2,OC(CCn1nc2c(Br)c(Br)c(Br)c(Br)c2n1)c1ccc(F)cc1 (stereo not given),35.4%

# System: CCRF-CEM
# Assay: Anticancer activity against human CCRF-CEM cells assessed as cell viability at 25 uM after 48 hrs by MTT assay
# Assay type: functional
# Conditions: read-out: Activity
row,Structure (SMILES),viability at 25 µM
1,CC(O)Cn1nc2c(Br)c(Br)c(Br)c(Br)c2n1 (racemic),78%
2,COc1cccc(C(O)CCn2nc3c(Br)c(Br)c(Br)c(Br)c3n2)c1 (stereo not given),50%
3,OC(CCn1nc2c(Br)c(Br)c(Br)c(Br)c2n1)c1ccc(F)cc1 (stereo not given),88%

# System: CCRF-CEM
# Assay: Anticancer activity against human CCRF-CEM cells assessed as cell viability at 100 uM after 24 hrs by MTT assay
# Assay type: functional
# Conditions: read-out: Activity
row,Structure (SMILES),viability at 100 µM
1,Brc1c(Br)c(Br)c2[nH]nnc2c1Br [TETRABROMOBENZOTRIAZOLE],61%
2,CC(O)Cn1nc2c(Br)c(Br)c(Br)c(Br)c2n1 (racemic),9%
3,COc1cccc(C(O)CCn2nc3c(Br)c(Br)c(Br)c(Br)c3n2)c1 (stereo not given),48%
4,OC(CCn1nc2c(Br)c(Br)c(Br)c(Br)c2n1)c1ccc(F)cc1 (stereo not given),0%

# System: MCF7
# Assay: Anticancer activity against human MCF7 cells assessed as cell viability at 12.5 uM after 48 hrs by MTT assay
# Assay type: functional
# Conditions: MCF7, 48 h, read-out: Activity
row,Structure (SMILES),viability at 12.5 µM
1,CC(O)Cn1nc2c(Br)c(Br)c(Br)c(Br)c2n1 (racemic),99%
2,COc1cccc(C(O)CCn2nc3c(Br)c(Br)c(Br)c(Br)c3n2)c1 (stereo not given),97%
3,OC(CCn1nc2c(Br)c(Br)c(Br)c(Br)c2n1)c1ccc(F)cc1 (stereo not given),109%

# System: MCF7
# Assay: Anticancer activity against human MCF7 cells assessed as cell viability at 25 uM after 24 hrs by MTT assay
# Assay type: functional
# Conditions: MCF7, 24 h, read-out: Activity
row,Structure (SMILES),viability at 25 µM
1,Brc1c(Br)c(Br)c2[nH]nnc2c1Br [TETRABROMOBENZOTRIAZOLE],108%
2,CC(O)Cn1nc2c(Br)c(Br)c(Br)c(Br)c2n1 (racemic),96%
3,COc1cccc(C(O)CCn2nc3c(Br)c(Br)c(Br)c(Br)c3n2)c1 (stereo not given),71%
4,OC(CCn1nc2c(Br)c(Br)c(Br)c(Br)c2n1)c1ccc(F)cc1 (stereo not given),101%

# System: CCRF-CEM
# Assay: Anticancer activity against human CCRF-CEM cells assessed as cell viability at 50 uM after 48 hrs by MTT assay
# Assay type: functional
# Conditions: read-out: Activity
row,Structure (SMILES),viability at 50 µM
1,CC(O)Cn1nc2c(Br)c(Br)c(Br)c(Br)c2n1 (racemic),53%
2,COc1cccc(C(O)CCn2nc3c(Br)c(Br)c(Br)c(Br)c3n2)c1 (stereo not given),2%
3,OC(CCn1nc2c(Br)c(Br)c(Br)c(Br)c2n1)c1ccc(F)cc1 (stereo not given),0%

# System: MCF7
# Assay: Anticancer activity against human MCF7 cells assessed as cell viability at 100 uM after 48 hrs by MTT assay
# Assay type: functional
# Conditions: MCF7, 48 h, read-out: Activity
row,Structure (SMILES),viability at 100 µM
1,CC(O)Cn1nc2c(Br)c(Br)c(Br)c(Br)c2n1 (racemic),6%
2,COc1cccc(C(O)CCn2nc3c(Br)c(Br)c(Br)c(Br)c3n2)c1 (stereo not given),6%
3,OC(CCn1nc2c(Br)c(Br)c(Br)c(Br)c2n1)c1ccc(F)cc1 (stereo not given),0%

# System: MCF7
# Assay: Anticancer activity against human MCF7 cells assessed as cell viability at 100 uM after 24 hrs by MTT assay
# Assay type: functional
# Conditions: MCF7, 24 h, read-out: Activity
row,Structure (SMILES),viability at 100 µM
1,Brc1c(Br)c(Br)c2[nH]nnc2c1Br [TETRABROMOBENZOTRIAZOLE],109%
2,CC(O)Cn1nc2c(Br)c(Br)c(Br)c(Br)c2n1 (racemic),15%
3,COc1cccc(C(O)CCn2nc3c(Br)c(Br)c(Br)c(Br)c3n2)c1 (stereo not given),16%
4,OC(CCn1nc2c(Br)c(Br)c(Br)c(Br)c2n1)c1ccc(F)cc1 (stereo not given),0%

# System: MCF7
# Assay: Anticancer activity against human MCF7 cells assessed as cell viability at 25 uM after 48 hrs by MTT assay
# Assay type: functional
# Conditions: MCF7, 48 h, read-out: Activity
row,Structure (SMILES),viability at 25 µM
1,CC(O)Cn1nc2c(Br)c(Br)c(Br)c(Br)c2n1 (racemic),83%
2,COc1cccc(C(O)CCn2nc3c(Br)c(Br)c(Br)c(Br)c3n2)c1 (stereo not given),96%
3,OC(CCn1nc2c(Br)c(Br)c(Br)c(Br)c2n1)c1ccc(F)cc1 (stereo not given),97%

# System: CCRF-CEM
# Assay: Anticancer activity against human CCRF-CEM cells assessed as cell viability at 25 uM after 24 hrs by MTT assay
# Assay type: functional
# Conditions: read-out: Activity
row,Structure (SMILES),viability at 25 µM
1,Brc1c(Br)c(Br)c2[nH]nnc2c1Br [TETRABROMOBENZOTRIAZOLE],105%
2,CC(O)Cn1nc2c(Br)c(Br)c(Br)c(Br)c2n1 (racemic),102%
3,COc1cccc(C(O)CCn2nc3c(Br)c(Br)c(Br)c(Br)c3n2)c1 (stereo not given),106%
4,OC(CCn1nc2c(Br)c(Br)c(Br)c(Br)c2n1)c1ccc(F)cc1 (stereo not given),104%

# System: CCRF-CEM
# Assay: Anticancer activity against human CCRF-CEM cells assessed as cell viability at 50 uM after 24 hrs by MTT assay
# Assay type: functional
# Conditions: read-out: Activity
row,Structure (SMILES),viability at 50 µM
1,Brc1c(Br)c(Br)c2[nH]nnc2c1Br [TETRABROMOBENZOTRIAZOLE],118%
2,CC(O)Cn1nc2c(Br)c(Br)c(Br)c(Br)c2n1 (racemic),108%
3,COc1cccc(C(O)CCn2nc3c(Br)c(Br)c(Br)c(Br)c3n2)c1 (stereo not given),58%
4,OC(CCn1nc2c(Br)c(Br)c(Br)c(Br)c2n1)c1ccc(F)cc1 (stereo not given),46%
